Measurements: patent US12397023B2, “Composition comprising Lactococcus chungangensis for prevention or treatment of fatty liver or metabolic syndrome” (CHUNG ANG UNIVERSITY INDUSTRY ACADEMIC COOPERATION …, priority 2018, dated 2025)

Tested on: HFD-induced obese mice
Assay: Serum lipids (TC, TG, HDL, LDL)
Format: in vivo, C57BL/6J mouse
Conditions: 12 weeks, mean ± SEM
Description: During the experimental period, the experimental group had free access to diet and drinking water. […] The same volume of PBS was administered to the negative control group and the positive control group. […] All mice were gavaged once a week for 12 weeks.
Blood samples were collected after 12 weeks of treatment from two mice from each experimental group in centrifuge tubes containing EDTA. Blood was drawn by puncturing the orbit through the orbit and within the orbit. Samples were centrifuged at 1200× for 15 minutes and incubated at 4° C. for 10 minutes. Serum aspartate aminotransferase (AST), alanine aminotransferase (ALT), TC, high-density lipoprotein (HDL), low-density lipoprotein (LDL) and TG were analyzed in the serum supernatant using an appropriate assay kit (Green Cross Biopharmaceutical, Yongin, Korea). The same samples were also used for hormone measurements.

In the case of `CCC(C)(C)C(=O)O[C@H]1C[C@@H](C)C=C2C=C[C@H](C)[C@H](CC[C@@H]3C[C@@H](O)CC(=O)O3)[C@H]21` [Simvastatin], the TC was 51.50 ± 1.50 mg/dL and the TG was 30.00 ± 5.00 mg/dL.
